Measurements published in patent US10765114B2, “4-amino-6-(pyridyl and 2-substitutedphenyl)-picolinates and 6-amino-2-(pyridyl and 2-substitutedphenyl)-pyrimidine-4-carboxylates and their use as herbicides” (Dow AgroSciences LLC, priority 2013, dated 2020).

The molecules below were run on Key Grass and Sedge Weeds as well as Grass Crops (assay: Post-Emergent Test II (Table 6)). Settings: post-emergence, 336 h, CYPSS, 140 g ai/ha, 14 days after application, read-out: Visual Growth Reduction (%) 14 Days After Application CYPSS.
Format: in vivo
Method in brief: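 Visual injury ratings (0 = no injury, 100 = complete kill) were taken 14 days after treatment relative to untreated plants. Seedlings at the first or second true leaf stage received an overhead spray at 187 L/ha, and solvent-blank sprayed plants served as controls.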

Structure (SMILES)	pest or weed control at 140 g/ha
C=Cc1c(-c2cc(N)c(Cl)c(C(=O)OC)n2)ccc(Cl)c1F [Compound 79, methyl 4-amino-3-chloro-6-(4-chloro-3-fluoro-2-vinylphenyl)picolinate]	95 to 100%

Same assay, conditions: post-emergence, 336 h, DIGSA: crabgrass (Digitaria sanguinalis), 70 g ai/ha, 14 days after application, read-out: Visual Growth Reduction (%) 14 Days After Application DIGSA

Structure (SMILES)	pest or weed control at 70 g/ha
C=Cc1c(-c2cc(N)c(Cl)c(C(=O)OC)n2)ccc(Cl)c1F [Compound 79, methyl 4-amino-3-chloro-6-(4-chloro-3-fluoro-2-vinylphenyl)picolinate]	0 to 29%

Same assay, conditions: post-emergence, 336 h, DIGSA: crabgrass (Digitaria sanguinalis), 140 g ai/ha, 14 days after application, read-out: Visual Growth Reduction (%) 14 Days After Application DIGSA

Structure (SMILES)	pest or weed control at 140 g/ha
C=Cc1c(-c2cc(N)c(Cl)c(C(=O)OC)n2)ccc(Cl)c1F [Compound 79, methyl 4-amino-3-chloro-6-(4-chloro-3-fluoro-2-vinylphenyl)picolinate]	0 to 29%

Same assay, conditions: post-emergence, 336 h, ECHSS, 70 g ai/ha, 14 days after application, read-out: Visual Growth Reduction (%) 14 Days After Application ECHSS

Structure (SMILES)	pest or weed control at 70 g/ha
C=Cc1c(-c2cc(N)c(Cl)c(C(=O)OC)n2)ccc(Cl)c1F [Compound 79, methyl 4-amino-3-chloro-6-(4-chloro-3-fluoro-2-vinylphenyl)picolinate]	0 to 29%

Same assay, conditions: post-emergence, 336 h, ECHSS, 140 g ai/ha, 14 days after application, read-out: Visual Growth Reduction (%) 14 Days After Application ECHSS

Structure (SMILES)	pest or weed control at 140 g/ha
C=Cc1c(-c2cc(N)c(Cl)c(C(=O)OC)n2)ccc(Cl)c1F [Compound 79, methyl 4-amino-3-chloro-6-(4-chloro-3-fluoro-2-vinylphenyl)picolinate]	0 to 29%

Same assay, conditions: post-emergence, 336 h, ORYSS (crop), 70 g ai/ha, 14 days after application, read-out: Visual Growth Reduction (%) 14 Days After Application ORYSS

Structure (SMILES)	pest or weed control at 70 g/ha
C=Cc1c(-c2cc(N)c(Cl)c(C(=O)OC)n2)ccc(Cl)c1F [Compound 79, methyl 4-amino-3-chloro-6-(4-chloro-3-fluoro-2-vinylphenyl)picolinate]	0 to 29%

Same assay, conditions: post-emergence, 336 h, ORYSS (crop), 140 g ai/ha, 14 days after application, read-out: Visual Growth Reduction (%) 14 Days After Application ORYSS

Structure (SMILES)	pest or weed control at 140 g/ha
C=Cc1c(-c2cc(N)c(Cl)c(C(=O)OC)n2)ccc(Cl)c1F [Compound 79, methyl 4-amino-3-chloro-6-(4-chloro-3-fluoro-2-vinylphenyl)picolinate]	0 to 29%

Same assay, conditions: post-emergence, 336 h, SETFA: giant foxtail (Setaria faberi), 70 g ai/ha, 14 days after application, read-out: Visual Growth Reduction (%) 14 Days After Application SETFA

Structure (SMILES)	pest or weed control at 70 g/ha
C=Cc1c(-c2cc(N)c(Cl)c(C(=O)OC)n2)ccc(Cl)c1F [Compound 79, methyl 4-amino-3-chloro-6-(4-chloro-3-fluoro-2-vinylphenyl)picolinate]	0 to 29%

Same assay, conditions: post-emergence, 336 h, SETFA: giant foxtail (Setaria faberi), 140 g ai/ha, 14 days after application, read-out: Visual Growth Reduction (%) 14 Days After Application SETFA

Structure (SMILES)	pest or weed control at 140 g/ha
C=Cc1c(-c2cc(N)c(Cl)c(C(=O)OC)n2)ccc(Cl)c1F [Compound 79, methyl 4-amino-3-chloro-6-(4-chloro-3-fluoro-2-vinylphenyl)picolinate]	0 to 29%

Same assay, conditions: post-emergence, 336 h, SORVU: grain sorghum (Sorghum vulgare), 70 g ai/ha, 14 days after application, read-out: Visual Growth Reduction (%) 14 Days After Application SORVU

Structure (SMILES)	pest or weed control at 70 g/ha
C=Cc1c(-c2cc(N)c(Cl)c(C(=O)OC)n2)ccc(Cl)c1F [Compound 79, methyl 4-amino-3-chloro-6-(4-chloro-3-fluoro-2-vinylphenyl)picolinate]	0 to 29%

Same assay, conditions: post-emergence, 336 h, SORVU: grain sorghum (Sorghum vulgare), 140 g ai/ha, 14 days after application, read-out: Visual Growth Reduction (%) 14 Days After Application SORVU

Structure (SMILES)	pest or weed control at 140 g/ha
C=Cc1c(-c2cc(N)c(Cl)c(C(=O)OC)n2)ccc(Cl)c1F [Compound 79, methyl 4-amino-3-chloro-6-(4-chloro-3-fluoro-2-vinylphenyl)picolinate]	30 to 44%

Same assay, conditions: post-emergence, 336 h, TRZSS (crop), 70 g ai/ha, 14 days after application, read-out: Visual Growth Reduction (%) 14 Days After Application TRZSS

Structure (SMILES)	pest or weed control at 70 g/ha
C=Cc1c(-c2cc(N)c(Cl)c(C(=O)OC)n2)ccc(Cl)c1F [Compound 79, methyl 4-amino-3-chloro-6-(4-chloro-3-fluoro-2-vinylphenyl)picolinate]	0 to 29%

Same assay, conditions: post-emergence, 336 h, TRZSS (crop), 140 g ai/ha, 14 days after application, read-out: Visual Growth Reduction (%) 14 Days After Application TRZSS

Structure (SMILES)	pest or weed control at 140 g/ha
C=Cc1c(-c2cc(N)c(Cl)c(C(=O)OC)n2)ccc(Cl)c1F [Compound 79, methyl 4-amino-3-chloro-6-(4-chloro-3-fluoro-2-vinylphenyl)picolinate]	0 to 29%

Same assay, conditions: post-emergence, 336 h, ZEAMX: maize, corn (Zea mays), 70 g ai/ha, 14 days after application, read-out: Visual Growth Reduction (%) 14 Days After Application ZEAMX

Structure (SMILES)	pest or weed control at 70 g/ha
C=Cc1c(-c2cc(N)c(Cl)c(C(=O)OC)n2)ccc(Cl)c1F [Compound 79, methyl 4-amino-3-chloro-6-(4-chloro-3-fluoro-2-vinylphenyl)picolinate]	0 to 29%

Same assay, conditions: post-emergence, 336 h, ZEAMX: maize, corn (Zea mays), 140 g ai/ha, 14 days after application, read-out: Visual Growth Reduction (%) 14 Days After Application ZEAMX

Structure (SMILES)	pest or weed control at 140 g/ha
C=Cc1c(-c2cc(N)c(Cl)c(C(=O)OC)n2)ccc(Cl)c1F [Compound 79, methyl 4-amino-3-chloro-6-(4-chloro-3-fluoro-2-vinylphenyl)picolinate]	0 to 29%
